{
  "source": "paper PMC8869507",
  "about": "“Gel-Forming of Self-Assembling Peptides Functionalized with Food Bioactive Motifs Modulate DPP-IV and ACE Inhibitory Activity in Human Intestinal Caco-2 Cells” (Biomedicines, 2022)",
  "key": {"[1]": {"test_system": "ACE", "design": "method as in BIOPEP", "conditions": "from casein and soybean hydrolysates; ref BIOPEP; cited from earlier work"}, "[2]": {"experiment": "Atomic force microscopy (AFM) of peptide nanostructures", "type": "physicochemical", "conditions": "AFM tapping mode, 0.01% w/v in distilled water, sonicated 30 min, on mica", "procedure": "AFM measurements were captured in tapping mode using a Tosca system (Anton Paar, Graz, Austria) using single-beam silicon cantilever probes. Peptides were dissolved in distilled water at a final concentration of 0.01% w/v and sonicated for 30 min, the same day as imaging. Then, 5 μL of peptide solution were deposited for 5 min on freshly cleaved mica, and distilled water was used to remove peptides loosely bound to the mica."}, "[3]": {"test_system": "ACE", "experiment": "In vitro evaluation of ACE inhibition activity (HHL substrate)", "type": "biochemical, porcine kidney", "conditions": "1 mg/mL; HHL 2.5 mM, pH 8.3, preincubation 15 min 37 °C, incubation 60 min 37 °C, HPLC of hippuric acid", "procedure": "(§1) Peptide IAVP (1 mg/mL) was tested as previously described evaluating its DPP-IV and ACE inhibitory activity, respectively. For the evaluation of in vitro ACE inhibitory activity, a biochemical assay was used (further details are reported in supplementary materials).\n(§2) Supplementary Materials for Gel‐forming of self‐assembling peptides functionalized with food bioactive motifs modulate DPP‐IV and ACE inhibitory ac‐ tivity in human intestinal Caco‐2 cells\n(§3) Raffaele Pugliese1,*, Martina Bartolomei2, Carlotta Bollati2, Giovanna Boschin2, Anna Arnoldi2, and Carmen […]\n(§4) In vitro evaluation of ACE inhibition activity. […]\n(§5) The evaluation of the inhibition of ACE activity was based on the comparison between the concentrations of HA in the presence or absence of the inhibitor (Inhibitor Blank). The phenomenon of autolysis of HHL to give HA was evaluated by a reaction blank, i.e. a sample with the higher inhibitor concentration but without the enzyme. The percentage of ACE inhibition was calculated considering the area of the HA peak with the following formula: […] where AIB is the area of HA in the Inhibitor Blank (IB) sample (i.e., sample with enzyme but without inhibitor), AN is the area of HA in the samples containing different inhibitor amounts, and ARB is the area of HA in the Reaction Blank (RB) sample (i.e., sample without enzyme and with inhibitor at the highest concentration). […]"}, "[4]": {"test_system": "DPP-IV", "experiment": "In vitro DPP-IV activity assay", "type": "biochemical", "conditions": "IAVP up to 1 mg/mL (1, 10, 100, 500 and 1000 μg/mL), Tris-HCl pH 8.0, H-Gly-Pro-AMC, 37°, 30 min, fluorescence 350/465 nm, triplicate", "procedure": "as §1, §2, §3, §4, §5"}, "[5]": {"test_system": "DPP-IV", "conditions": "cited from earlier work; for DPP-IV activity in situ: human Caco-2 cells; for DPP-IV activity in situ / DPP-IV activity in vitro: ref [1]; for pIC50: plain solutions, ref [4]", "from_the_text": "IAVPTGVA and LTFPGSAED (dubbed, respectively, Soy1 and Lup1) are two peptides derived from the hydrolysis of soybean glycinin and lupin β-conglutin, respectively. […] This difference was explained ..."}, "[6]": {"test_system": "ACE", "conditions": "ACE activity expressed by Caco-2 cells, dose–response; no reference printed in the sentence (sentence before: ref [28]); cited from earlier work", "from_the_text": "This difference was explained ..."}, "[7]": {"test_system": "HMGCoAR", "conditions": "in vitro; ref [1],[2],[3],[4]; cited from earlier work", "from_the_text": "(§6) IAVPTGVA and LTFPGSAED (dubbed, respectively, Soy1 and Lup1) are two peptides derived from the hydrolysis of soybean glycinin and lupin β-conglutin, respectively."}, "[8]": {"test_system": "HepG2 cells", "conditions": "human HepG2 cells, ref [3],[5], cited from earlier work; for LDL uptake: LDL from the extracellular environment; for LDLR protein levels: through HMGCoAR inhibition", "from_the_text": "as §6"}, "[9]": {"test_system": "DPP-IV and ACE", "conditions": "cited from earlier work; for concentration encapsulated needed for positive effect on DPP-IV and ACE: encapsulated in RADA16 hydrogel, previously reported by the authors, reference not given; for capability of inhibiting DPP-IV and ACE: non-covalently entrapped into RADA16, ref [10]", "from_the_text": "(§7) However, such food-derived peptides show low stability, bioavailability (due to their rapid degradation by active peptidases located on the intestinal microvilli), and a poor propensity to form functional biomaterials (i.e., hydrogels), thus precluding their practical applications."}, "[10]": {"test_system": "proteases", "conditions": "cited from earlier work; for bioavailability / resistance towards proteases: non-covalent encapsulation in RADA16 hydrogel vs plain solutions, previously reported by the authors, reference not given; for stability: non-covalently entrapped into RADA16, ref [10]", "from_the_text": "as §7"}, "[11]": {"test_system": "Caco-2 cells", "conditions": "cited from earlier work"}, "[12]": {"test_system": "ACE", "design": "method as in PMID 32223157", "conditions": "metabolite of Lup1; ref [28]; cited from earlier work"}, "[13]": {"test_system": "DPP-IV", "design": "method as in PMID 32223157", "conditions": "metabolite of Lup1; ref [28]; cited from earlier work"}, "[14]": {"conditions": "non-covalently entrapped in RADA16; previously reported by the authors, reference not given; cited from earlier work"}, "[15]": {"conditions": "DPP-IV expressed by Caco-2 cells, read-out: IC50 cellular DPP-IV"}, "[16]": {"conditions": "purified enzymes, read-out: IC50 in vitro DPP-IV"}},
  "note": "pIC50: −log10 of the molar value. Read-outs that look alike come from different tables or passages of the source.",
  "data": [
    {"substance": "AVP", "values": [
      {"measurement": "known ACE inhibitor peptide", "setting": "[1]", "result": "known ACE inhibitor peptides"}
    ]},
    {"substance": "Ac-IAVPTGVAGGGRADARADARADARADA-NH2 [fAP-Soy1, RADA16 functionalized at the N-terminus with Soy1 through a three-glycines spacer]", "values": [
      {"measurement": "nanostructure morphology", "setting": "[2]", "result": "short single nanofibers"}
    ]},
    {"substance": "Ac-LTFPGSAEDGGGRADARADARADARADA-NH2 [fAP-Lup1, RADA16 functionalized at the N-terminus with Lup1 through a three-glycines spacer]", "values": [
      {"measurement": "nanostructure morphology", "setting": "[2]", "result": "did not form nanofibers, but instead led to the formation of sparse round aggregates"}
    ]},
    {"substance": "IAVP [small peptide from degradation of Soy1]", "values": [
      {"measurement": "reduction of in vitro ACE activity", "setting": "[3]", "result": "20.1 ± 0.5", "unit": "%"},
      {"measurement": "DPP-IV inhibitory activity", "setting": "[4]", "result": "totally ineffective on DPP-IV"}
    ]},
    {"substance": "IAVPTGVA [Soy1]", "values": [
      {"measurement": "DPP-IV activity in situ", "setting": "[5]", "result": "drop the in vitro and in situ human Caco-2 cells DPP-IV activity"},
      {"measurement": "DPP-IV activity in vitro", "setting": "[5]", "result": "drop the in vitro and in situ human Caco-2 cells DPP-IV activity"},
      {"measurement": "pIC50", "setting": "[5]; [15]", "result": 3.65},
      {"measurement": "pIC50", "setting": "[5]; [16]", "result": 3.97},
      {"measurement": "pIC50", "setting": "[6]", "result": 4.83},
      {"measurement": "HMGCoAR inhibition", "setting": "[7]", "result": "act as in vitro HMGCoAR and DPP-IV inhibitors"},
      {"measurement": "LDL uptake", "setting": "[8]", "result": "improved the ability of hepatic cells to uptake LDL"},
      {"measurement": "LDLR protein levels", "setting": "[8]", "result": "upregulation of the LDLR protein levels"},
      {"measurement": "concentration encapsulated needed for positive effect on DPP-IV and ACE", "setting": "[9]", "result": "more than 100 μM"},
      {"measurement": "capability of inhibiting DPP-IV and ACE", "setting": "[9]", "result": "significantly improved as well as their capability of inhibiting DPP-IV and ACE"},
      {"measurement": "bioavailability", "setting": "[10]", "result": "higher bioavailability"},
      {"measurement": "resistance towards proteases", "setting": "[10]", "result": "higher resistance towards the proteases"},
      {"measurement": "stability", "setting": "[10]", "result": "significantly improved"},
      {"measurement": "transport across the intestinal barrier", "setting": "[11]; Caco-2 trans-epithelial transport, ref [28],[29]", "result": "able to across the intestinal barrier"},
      {"measurement": "break-down fragments by intestinal peptidases", "setting": "[11]; apical side of Caco-2 cells, trans-epithelial transport, ref [29]", "result": "metabolized in three breakdown fragments (AVPTGVA, IAVP, and IAV)"},
      {"measurement": "susceptibility to metabolic activity of peptidase", "setting": "[11]; apical side of human intestinal Caco-2 cells, compared with Lup1, ref [28]", "result": "more suitable for the metabolic activity of peptidase"}
    ]},
    {"substance": "LTFPG [peptide cleaved from Lup1]", "values": [
      {"measurement": "ACE inhibitory activity", "setting": "[12]", "result": "maintains its ACE inhibitory activity"},
      {"measurement": "DPP-IV inhibitory activity", "setting": "[13]", "result": "losing that against DPP-IV"}
    ]},
    {"substance": "LTFPGSAED [Lup1]", "values": [
      {"measurement": "DPP-IV activity in situ", "setting": "[5]", "result": "drop the in vitro and in situ human Caco-2 cells DPP-IV activity"},
      {"measurement": "DPP-IV activity in vitro", "setting": "[5]", "result": "drop the in vitro and in situ human Caco-2 cells DPP-IV activity"},
      {"measurement": "pIC50", "setting": "[5]; [15]", "result": 3.68},
      {"measurement": "pIC50", "setting": "[5]; [16]", "result": 3.64},
      {"measurement": "pIC50", "setting": "[6]", "result": 4.86},
      {"measurement": "HMGCoAR inhibition", "setting": "[7]", "result": "act as in vitro HMGCoAR and DPP-IV inhibitors"},
      {"measurement": "LDL uptake", "setting": "[8]", "result": "improved the ability of hepatic cells to uptake LDL"},
      {"measurement": "LDLR protein levels", "setting": "[8]", "result": "upregulation of the LDLR protein levels"},
      {"measurement": "release from RADA16 hydrogel", "setting": "[14]", "result": "regularly delivered by the RADA16 hydrogel during the 360 min of controlled release tests"},
      {"measurement": "concentration encapsulated needed for positive effect on DPP-IV and ACE", "setting": "[9]", "result": "more than 100 μM"},
      {"measurement": "capability of inhibiting DPP-IV and ACE", "setting": "[9]", "result": "significantly improved as well as their capability of inhibiting DPP-IV and ACE"},
      {"measurement": "bioavailability", "setting": "[10]", "result": "higher bioavailability"},
      {"measurement": "resistance towards proteases", "setting": "[10]", "result": "higher resistance towards the proteases"},
      {"measurement": "stability", "setting": "[10]", "result": "significantly improved"},
      {"measurement": "transport across the intestinal barrier", "setting": "[11]", "result": "able to across the intestinal barrier"}
    ]},
    {"substance": "RADA16", "values": [
      {"measurement": "nanostructure morphology", "setting": "[2]", "result": "self-assembles into long nanofibers"}
    ]}
  ]
}
